Data reported in patent US10654882B2, “Nicotinamide mononucleotide derivative and salt thereof, method for producing same, topical skin preparation, cosmetic and food additive” (SHOWA DENKO K.K., priority 2015, dated 2020).
Read-outs that look alike come from different tables or passages of the source.

Tested on: three-dimensional cultured human skin model (EPI-606X)
Assay: Skin permeability test
Description: A three-dimensional cultured human skin model (EPI-606X, Kurabo Industries Ltd., area: 3.8 cm^2) was placed in a 6-well plate containing PBS solution (1 mL) so that the lower portion thereof was submerged. The human skin model was then allowed to stand undisturbed for 30 minutes in an incubator under conditions of 37° C. and a carbon dioxide concentration of 5%. Next, the PBS solution in the lower wells of the skin model was replaced with HBSS(−) solution (Hanks solution, 1 mL) (to be referred to as the “receiver liquid”) and the sample solution (700 μL) obtained above was administered onto the skin model. The skin model was then allowed to stand undisturbed for 24 hours in an incubator under conditions of 37° C. and a carbon dioxide concentration of 5%.
After allowing to stand undisturbed for 24 hours, the sample solution on the skin model was removed using a pipette followed by removing the skin model from the wells and washing with PBS (−) solution. Next, a section of the skin model was cut out and placed in a 2 mL tube. Methanol (1 mL) and stainless steel beads (Tomy Co., Ltd., diameter: 5.5 mm) were added to the tube followed by crushing the section using a Multi Beads Shocker (Yasui Kikai Corp.) under conditions of 10 seconds at 2000 rpm for 10 cycles.
Following crushing, the resulting solution was transferred to a 2 mL Eppendorf tube and centrifuged for 5 minutes at 12000 rpm followed by filtering the supernatant with a filter (pore diameter: 0.22 μm) to obtain a skin model extract.
Next, the amounts of test substance in the skin model extract and receiver liquid were quantified for each test substance under the previously described HPLC Analysis Conditions 1. The total amount of test substance absorbed by the skin model in each well was calculated from the quantified value of test substance in the skin model extract. In addition, the quantified value of test substance in the receiver liquid was used as the amount of test substance that permeated the skin model. The total value A (μg) of the total amount of test substance absorbed by the skin model and the amount of test substance that permeated the skin model was then calculated.
The permeation rate (%) through the skin model for each test substance administered to the skin model was calculated according to the following equation (i). Moreover, the aforementioned skin permeability test was carried out three times for each test substance followed by calculation of each permeation rate (%). […] Furthermore, the value shown in front of the (±) symbol in the column entitled “Permeation Rate (%)” indicates the average value of the three results, while the number after the (±) symbol indicates the range of variation of the three results. Permeation rate (%)=(A/1400(amount of test substance administered to skin model) (μg)))×100 (i)

[1] = 0.2% by weight sample solution in PBS(-), pH 7.4, 700 μL on skin model, 24 hours, 37° C., average ± range of variation of three results
[2] = skin model, 24 hours, compared with non-acylated β-NMN or among the examples

Row | Compound | Permeation Rate (%) (pH 7.4) | Permeation Rate (%) [1] | Permeation rate, comparison in words [2] | Permeation rate, comparison in words
1 | NC(=O)c1ccc[n+]([C@@H]2O[C@H](COP(=O)([O-])O)[C@@H](O)[C@H]2O)c1 [Comparative Example 2, β-nicotinamide mononucleotide, reference compound] | 15 ± 0.4% | – | – | –
2 | CCCCCCCCCCCCCCCC(=O)O[C@H]1[C@@H](O)[C@H]([n+]2cccc(C(N)=O)c2)O[C@@H]1COP(=O)([O-])O [Example 1, 3′-palmitoyl-β-nicotinamide mononucleotide] | – | 40 ± 4.7% | particularly high | –
3 | CCCCCCCCCCCCCCCC(=O)O[C@@H]1[C@H](OC(=O)CCCCCCCCCCCCCCC)[C@@H](COP(=O)([O-])O)O[C@H]1[n+]1cccc(C(N)=O)c1 [Example 2, 2′,3′-dipalmitoyl-β-nicotinamide mononucleotide] | – | 41 ± 1.7% | particularly high | –
4 | CCCCCCCCCCCC(=O)O[C@H]1[C@@H](O)[C@H]([n+]2cccc(C(N)=O)c2)O[C@@H]1COP(=O)([O-])O [Example 3, 3′-lauroyl-β-NMN] | 35 ± 4.7% | – | – | particularly high
5 | CCCCCCCCCCCC(=O)O[C@@H]1[C@H](OC(=O)CCCCCCCCCCC)[C@@H](COP(=O)([O-])O)O[C@H]1[n+]1cccc(C(N)=O)c1 [Example 4, 2′,3′-dilauroyl-β-NMN] | 40 ± 4.7% | – | – | particularly high
6 | CCCCCCCC(=O)O[C@H]1[C@@H](O)[C@H]([n+]2cccc(C(N)=O)c2)O[C@@H]1COP(=O)([O-])O [Example 5, 3′-octanoyl-β-NMN] | 31 ± 4.7% | – | – | –
7 | CCCCCCCC(=O)OC1C(COP(=O)([O-])O)OC([n+]2cccc(C(N)=O)c2)C1OC(=O)CCCCCCC (stereo not drawn) [Example 6, 2′,3′-dioctanoyl-β-NMN] | – | 38 ± 4.7% | – | –
8 | CCCCCC(=O)O[C@H]1[C@@H](O)[C@H]([n+]2cccc(C(N)=O)c2)O[C@@H]1COP(=O)([O-])O [Example 7, 3′-hexanoyl-β-NMN] | 29 ± 4.7% | – | – | –
9 | CCCCCC(=O)O[C@@H]1[C@H](OC(=O)CCCCC)[C@@H](COP(=O)([O-])O)O[C@H]1[n+]1cccc(C(N)=O)c1 [Example 8, 2′,3′-dihexanoyl-β-NMN] | 37 ± 2.7% | – | – | –
10 | CCCCCCCCCCCCCCCC(=O)O[C@@H]1[C@H](OC(=O)CCCCCCCCCCCCCCC)[C@@H](COP(=O)([O-])[O-])O[C@H]1[n+]1cccc(C(N)=O)c1.[Na+] [Example 11, 2′,3′-dipalmitoyl-β-NMN sodium salt] | 41 ± 2.7% | – | – | high permeation rate in comparison with the non-acylated β-NMN of Comparative Example 2
11 | CC(=O)O[C@@H]1[C@H](OC(C)=O)[C@@H](COP(=O)([O-])O)O[C@H]1[n+]1cccc(C(N)=O)c1 [Synthesis Example 1, 2′,3′-diacetyl-β-nicotinamide mononucleotide, reference compound] | – | 16 ± 1.7% | equal to that of the non-acylated β-NMN of Comparative Example 2 | –
